Where a name gives a salt, the structure may show the parent alone. Read-outs that look alike come from different tables or passages of the source.
What was measured:
plasma DPP IV = biological target: T1, plasma DPP IV (Rattus norvegicus, UniProt P14740); test: Plasma DPP IV activity after oral administration, rat; format: in vivo; conditions: for inhibition at 1 mg/kg: 1 mg/kg oral; for ED50: oral, read-out: ED50 for inhibition of plasma DPP IV activity
T1 construct: from tissue
Experimental: The effect of 1-[(3-cyano-pyridin-2-yl)methyl]-3-methyl-7-(2-butyn-1-yl)-8-[3-(R)-amino-piperidin-1-yl]-xanthine on plasma DPP IV activity after oral administration was investigated in the rat, the Beagle dog and the Rhesus monkey. These investigations were conducted as described in the following.
Male HanWistar rats (Crl:WI(Han)) were obtained from Charles River (Germany). Animals were fed ad libitum with a standard pelleted diet (Diet No. 3438, Provimi Kliba, Switzerland) and had free access to water. Animals were housed in groups with a 12 h/12 h light/dark cycle (lights out between 6 p.m. and 6 a.m.). The rats were used for the experiment at a body weight of about 260 g. Such freely fed male HanWistar rats (n=5 per group) were administered oral doses of vehicle or 1-[(3-cyano-pyridin-2-yl)methyl]-3-methyl-7-(2-butyn-1-yl)-8-[3-(R)-amino-piperidin-1-yl]-xanthine monohydrochloride at 0.1, 0.3, 1, and 3 mg/kg body weight. Blood samples were drawn from the retrobulbal venous plexus under isoflurane anaesthesia. Blood was collected in EDTA tubes prior to administration of vehicle or 1-[(3-cyano-pyridin-2-yl)methyl]-3-methyl-7-(2-butyn-1-yl)-8-[3-(R)-amino-piperidin-1-yl]-xanthine monohydrochloride and subsequently at 0.5, 1, 2, 3, 4, 7, and 24 hour time points post dose. Plasma was prepared following blood collection and frozen for determination of DPP-IV activity.

alanine-amino-peptidase = alanine-amino-peptidase (Homo sapiens, UniProt P15144); test: In vitro selectivity, human proteases: alanine-amino-peptidase; format: biochemical; conditions: up to 100 μM
Text: In order to determine the in vitro selectivity of 1-[(3-cyano-pyridin-2-yl)methyl]-3-methyl-7-(2-butyn-1-yl)-8-[3-(R)-amino-piperidin-1-yl]-xanthine, the ability of this compound to inhibit a number of human proteases was investigated as described in Thomas et al. (2008), J. Pharmacol. Exp. Ther., vol. 325, p. 175-182, chapter In vitro DPP-4 Inhibition Assay, p. 176.

DPP IV [1] = biological target: T2, DPP IV (Felis catus, UniProt Q9N2I7); test: Exploratory single dose PK/PD (1.0/5.0/10.0 mg/kg) in cats: DPP IV activity; format: in vivo, cat; conditions: for response vs control in vivo at 1 mg/kg: 1 mg/kg single oral; for response vs control in vivo at 1 mg/kg / response vs control in vivo at 5 mg/kg / response vs control in vivo at 10 mg/kg: read-out: DPP IV activity in cat plasma; for response vs control in vivo at 5 mg/kg: 5 mg/kg single oral; for response vs control in vivo at 10 mg/kg: 10 mg/kg single oral
T2 construct: Blood samples for the determination of this compound and DPP IV activity were collected; from tissue; host or cells: plasma of domestic short hair / purpose-bred cats dosed orally
Experimental: The investigation of the PK/PD values was conducted in the same way as in Example 7, with the variations described below.
The aim of this study was to investigate the PK/PD behaviour of 1-[(3-cyano-pyridin-2-yl)methyl]-3-methyl-7-(2-butyn-1-yl)-8-[3-(R)-amino-piperidin-1-yl]-xanthine in the cat following a single oral administration of 0, 1, 5 and 10 mg/kg body weight (dosages were based on the free base: 1 mg 1-[(3-cyano-pyridin-2-yl)methyl]-3-methyl-7-(2-butyn-1-yl)-8-[3-(R)-amino-piperidin-1-yl]-xanthine monohydrochloride corresponds to 0.923 mg 1-[(3-cyano-pyridin-2-yl)methyl]-3-methyl-7-(2-butyn-1-yl)-8-[3-(R)-amino-piperidin-1-yl]-xanthine free base).
Twelve clinically healthy male adult domestic short hair cats with a body weight range of 3.5-4.7 kg were used in this study. All animals were treated orally once via a stomach tube. Blood samples for pharmacokinetic and pharmacodynamic (DPP IV activity) investigations were drawn at 0 h (i.e. prior to treatment), 30 min as well as 1, 2, 4, 8, 8.5, 9, 12, 24, 36, 48, 72, 84 and 96 h after treatment. Blood samples for pharmacodynamic (glucagon-like peptide 1 concentrations) investigations were drawn at −16 (i.e. prior to feeding), −15.5, −15 h as well as at 8 h (i.e. prior to feeding), 8.5 and 9 h after treatment.

DPP IV [2] = biological target: T2, DPP IV; test: PK/PD studies in cats, summary; format: in vivo, cat
Experimental: PK/PD studies to measure the effect of different doses of 1-[(3-cyano-pyridin-2-yl)methyl]-3-methyl-7-(2-butyn-1-yl)-8-[3-(R)-amino-piperidin-1-yl]-xanthine CL on DPP IV activity, are presented in the experimental part of this application. […] Larger degrees of DPP IV inhibition, e.g. more than 80% in 24 h can be reached by increased doses. The duration of DPP IV inhibition can be prolonged with higher dosages.

T1 sequence (P14740 37-767 limits assumed): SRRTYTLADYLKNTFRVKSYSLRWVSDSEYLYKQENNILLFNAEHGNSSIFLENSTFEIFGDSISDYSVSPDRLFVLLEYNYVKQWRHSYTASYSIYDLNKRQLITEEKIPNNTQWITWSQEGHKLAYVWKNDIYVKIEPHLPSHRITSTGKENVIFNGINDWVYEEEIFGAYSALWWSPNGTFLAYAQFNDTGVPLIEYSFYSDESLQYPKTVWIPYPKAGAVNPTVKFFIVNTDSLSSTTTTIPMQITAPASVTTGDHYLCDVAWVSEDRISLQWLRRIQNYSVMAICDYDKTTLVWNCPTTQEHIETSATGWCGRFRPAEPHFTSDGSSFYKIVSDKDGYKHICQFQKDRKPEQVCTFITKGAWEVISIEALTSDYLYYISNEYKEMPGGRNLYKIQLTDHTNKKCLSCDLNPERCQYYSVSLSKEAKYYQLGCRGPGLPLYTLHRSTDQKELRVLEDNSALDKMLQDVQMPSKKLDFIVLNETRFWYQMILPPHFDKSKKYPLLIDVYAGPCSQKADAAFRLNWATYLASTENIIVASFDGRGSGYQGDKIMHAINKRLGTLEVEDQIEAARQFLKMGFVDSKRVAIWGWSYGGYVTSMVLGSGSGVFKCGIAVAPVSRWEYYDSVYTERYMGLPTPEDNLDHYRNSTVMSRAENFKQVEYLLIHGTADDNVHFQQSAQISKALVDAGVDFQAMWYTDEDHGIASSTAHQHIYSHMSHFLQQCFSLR
T2 sequence (Q9N2I7 38-765 limits assumed): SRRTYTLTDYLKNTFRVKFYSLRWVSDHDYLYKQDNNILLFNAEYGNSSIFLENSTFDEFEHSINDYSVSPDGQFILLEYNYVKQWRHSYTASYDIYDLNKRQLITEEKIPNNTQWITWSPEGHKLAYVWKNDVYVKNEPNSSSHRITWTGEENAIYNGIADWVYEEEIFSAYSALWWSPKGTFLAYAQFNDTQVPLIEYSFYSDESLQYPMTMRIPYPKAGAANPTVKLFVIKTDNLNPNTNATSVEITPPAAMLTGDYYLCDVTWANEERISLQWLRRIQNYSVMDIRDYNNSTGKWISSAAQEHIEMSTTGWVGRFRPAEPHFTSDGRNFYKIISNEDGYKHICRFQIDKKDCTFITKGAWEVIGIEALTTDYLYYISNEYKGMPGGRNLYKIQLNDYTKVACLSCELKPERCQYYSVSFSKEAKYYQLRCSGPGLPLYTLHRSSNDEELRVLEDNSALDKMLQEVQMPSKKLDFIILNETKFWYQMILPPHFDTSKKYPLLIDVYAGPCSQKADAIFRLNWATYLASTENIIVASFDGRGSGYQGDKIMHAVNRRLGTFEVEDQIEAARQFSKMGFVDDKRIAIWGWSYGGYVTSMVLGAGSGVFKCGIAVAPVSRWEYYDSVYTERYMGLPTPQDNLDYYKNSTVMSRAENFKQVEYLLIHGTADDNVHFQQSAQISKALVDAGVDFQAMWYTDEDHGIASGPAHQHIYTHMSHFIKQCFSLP
alanine-amino-peptidase, sequence (P15144 whole entry): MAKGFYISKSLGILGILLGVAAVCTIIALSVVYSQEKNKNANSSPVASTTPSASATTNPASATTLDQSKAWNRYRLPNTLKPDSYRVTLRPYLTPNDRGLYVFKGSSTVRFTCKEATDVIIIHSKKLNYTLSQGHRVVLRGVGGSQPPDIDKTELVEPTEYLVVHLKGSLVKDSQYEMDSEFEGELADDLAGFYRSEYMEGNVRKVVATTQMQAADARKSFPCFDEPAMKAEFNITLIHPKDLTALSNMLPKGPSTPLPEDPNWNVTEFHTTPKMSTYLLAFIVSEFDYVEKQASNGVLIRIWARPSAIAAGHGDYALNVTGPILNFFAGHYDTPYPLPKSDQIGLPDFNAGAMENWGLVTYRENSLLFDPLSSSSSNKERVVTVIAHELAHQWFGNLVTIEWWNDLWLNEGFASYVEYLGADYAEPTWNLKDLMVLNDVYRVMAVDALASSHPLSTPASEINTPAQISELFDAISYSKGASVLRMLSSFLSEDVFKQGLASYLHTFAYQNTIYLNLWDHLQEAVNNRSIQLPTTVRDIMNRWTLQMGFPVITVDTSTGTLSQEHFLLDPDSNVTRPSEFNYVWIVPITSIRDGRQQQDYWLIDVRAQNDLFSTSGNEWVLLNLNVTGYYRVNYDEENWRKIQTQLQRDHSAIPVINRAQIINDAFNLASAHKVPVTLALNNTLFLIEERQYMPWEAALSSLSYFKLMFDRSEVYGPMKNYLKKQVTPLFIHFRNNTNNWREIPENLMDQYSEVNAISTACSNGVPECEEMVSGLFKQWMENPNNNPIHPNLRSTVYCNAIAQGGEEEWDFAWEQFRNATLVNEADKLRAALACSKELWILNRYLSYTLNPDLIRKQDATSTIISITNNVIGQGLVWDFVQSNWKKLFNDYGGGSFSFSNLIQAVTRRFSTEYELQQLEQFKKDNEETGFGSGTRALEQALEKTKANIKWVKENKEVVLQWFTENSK

Work on `CC#CCn1c(N2CCC[C@@H](N)C2)nc2c1c(=O)n(Cc1ncccc1C#N)c(=O)n2C` [1-[(3-cyano-pyridin-2-yl)methyl]-3-methyl-7-(2-butyn-1-yl)-8-[3-(R)-amino-piperidin-1-yl]-xanthine monohydrochloride] yielded an inhibition at 1 mg/kg (plasma DPP IV; 7 hours post dose) of 86%, an inhibition at 1 mg/kg (plasma DPP IV; 24 hours post dose) of 64% and an ED50 (plasma DPP IV; 7 h post dose) of 0.4 mg/kg. The ED50 (plasma DPP IV; 24 h post dose) was 0.6 mg/kg, the “inhibitory effect on alanine-amino-peptidase” value (alanine-amino-peptidase) was “did not exert any inhibitory effect” and the “time up to which DPP IV values remained ≦20%” value (DPP IV [1]; 1.0 mg/kg single oral) was 12 h. The response vs control in vivo at 1 mg/kg (DPP IV [1]; 0.5 h) was 8%, the response vs control in vivo at 1 mg/kg (DPP IV [1]; 1 h) was 7% and the response vs control in vivo at 1 mg/kg (DPP IV [1]; 2 h) was 7%. The response vs control in vivo at 1 mg/kg (DPP IV [1]; 4 h) was 7.3%, the response vs control in vivo at 1 mg/kg (DPP IV [1]; 8 h) was 9.3% and the response vs control in vivo at 1 mg/kg (DPP IV [1]; 8.5 h) was 9.7%. The response vs control in vivo at 1 mg/kg (DPP IV [1]; 9 h) was 9.7%, the response vs control in vivo at 1 mg/kg (DPP IV [1]; 12 h) was 12.3% and the response vs control in vivo at 1 mg/kg (DPP IV [1]; 24 h) was 22.3%. For the same compound, the response vs control in vivo at 1 mg/kg (DPP IV [1]; 36 h) was 43%, the response vs control in vivo at 1 mg/kg (DPP IV [1]; 48 h) was 59% and the response vs control in vivo at 1 mg/kg (DPP IV [1]; 72 h) was 74.7%. The response vs control in vivo at 1 mg/kg (DPP IV [1]; 84 h) was 84.3%, the response vs control in vivo at 1 mg/kg (DPP IV [1]; 96 h) was 81.7% and the “time up to which DPP IV values remained ≦20%” value (DPP IV [1]; 5.0 mg/kg single oral) was 24 h. It also gave a response vs control in vivo at 5 mg/kg (DPP IV [1]; 0.5 h) of 7.7%, a response vs control in vivo at 5 mg/kg (DPP IV [1]; 1 h) of 7% and a response vs control in vivo at 5 mg/kg (DPP IV [1]; 2 h) of 7%. It also gave a response vs control in vivo at 5 mg/kg (DPP IV [1]; 4 h) of 7.7%, a response vs control in vivo at 5 mg/kg (DPP IV [1]; 8 h) of 8.3% and a response vs control in vivo at 5 mg/kg (DPP IV [1]; 8.5 h) of 8.7%. For the same compound, the response vs control in vivo at 5 mg/kg (DPP IV [1]; 9 h) was 9%, the response vs control in vivo at 5 mg/kg (DPP IV [1]; 12 h) was 9.3% and the response vs control in vivo at 5 mg/kg (DPP IV [1]; 24 h) was 14.7%. It also gave a response vs control in vivo at 5 mg/kg (DPP IV [1]; 36 h) of 25.7%, a response vs control in vivo at 5 mg/kg (DPP IV [1]; 48 h) of 42.7% and a response vs control in vivo at 5 mg/kg (DPP IV [1]; 72 h) of 72.3%. The response vs control in vivo at 5 mg/kg (DPP IV [1]; 84 h) was 90%, the response vs control in vivo at 5 mg/kg (DPP IV [1]; 96 h) was 87.7% and the “time up to which DPP IV values remained ≦20%” value (DPP IV [1]; 10.0 mg/kg single oral) was 48 h. For the same compound, the response vs control in vivo at 10 mg/kg (DPP IV [1]; 0.5 h) was 8%, the response vs control in vivo at 10 mg/kg (DPP IV [1]; 1 h) was 7.3% and the response vs control in vivo at 10 mg/kg (DPP IV [1]; 2 h) was 7.3%. The response vs control in vivo at 10 mg/kg (DPP IV [1]; 4 h) was 9%, the response vs control in vivo at 10 mg/kg (DPP IV [1]; 8 h) was 9% and the response vs control in vivo at 10 mg/kg (DPP IV [1]; 8.5 h) was 9.7%. The response vs control in vivo at 10 mg/kg (DPP IV [1]; 9 h) was 9.3%, the response vs control in vivo at 10 mg/kg (DPP IV [1]; 12 h) was 9.7% and the response vs control in vivo at 10 mg/kg (DPP IV [1]; 24 h) was 12.3%. For the same compound, the response vs control in vivo at 10 mg/kg (DPP IV [1]; 36 h) was 16.3%, the response vs control in vivo at 10 mg/kg (DPP IV [1]; 48 h) was 20% and the response vs control in vivo at 10 mg/kg (DPP IV [1]; 72 h) was 37%. The response vs control in vivo at 10 mg/kg (DPP IV [1]; 84 h) was 58.3%, the response vs control in vivo at 10 mg/kg (DPP IV [1]; 96 h) was 67.3% and the “minimum mean DPP IV values” (DPP IV [1]; all three groups (1.0, 5.0, 10.0 mg/kg single oral)) was 7%. For the same compound, the “plasma concentration at which maximum DPP-IV inhibition was reached” value (DPP IV [1]; cat, PK-PD correlation) was 15 to 30 nmol/L, the “doses leading to a significant DPP IV inhibition” value (DPP IV [2]) was “more than 0.1 mg/kg” and the “DPP IV inhibition in 24 h” value (DPP IV [2]; achieved with 1 to 3 mg/kg (˜3 to 9 mg per cat, or 4 to 30 nmol/l in cat plasma)) was “more than 70%”.

Source: patent publication US20140228287A1, “1-[(3-CYANO-PYRIDIN-2-YL)METHYL]-3-METHYL-7-(2-BUTYN-1-YL)-8-[3-(R)-AMINO-PIPERIDIN-1-YL]-AXANTHINE FOR THE TREATMENT OF A METABOLIC DISORDER OF A PREDOMINANTLY CARNIVOROUS NON-HUMAN ANIMAL” (BOEHRINGER INGELHEIM VETMEDICA GMBH, priority 2010, published 2014)
